Like-named read-outs stand apart in the source and are kept apart here.
Experiments:
Conditions in all cases: solo, growth at 405 nm 7 days after inoculation
Septoria tritici = system: Septoria tritici
Alternaria solani = system: Alternaria solani
Phytophtora infestans = type: cell-based

`C[C@]1(COC(=O)C2CC2)[C@@H]2C[C@H](O)[C@@]3(C)Oc4cc(-c5cccnc5)oc(=O)c4[C@H](O)[C@@H]3[C@@]2(C)CC[C@@H]1OC(=O)C1CC1` [Compound I, [(3S,4R,4aR,6S,6aS,12R,12aS,12bS)-3-(cyclopropanecarbonyloxy)-6,12-dihydroxy-4,6a,12b-trimethyl-11-oxo-9-(pyridin-3-yl)-1,2,3,4,4a,5,6,6a,12a,12b-decahydro-11H,12H-benzo[f]pyrano[4,3-b]chromen-4-yl]methyl cyclopropanecarboxylate] showed an Observed efficacy (Septoria tritici; 4 ppm) of 0%, an Observed efficacy (Septoria tritici; 63 ppm) of 0% and an Observed efficacy (Alternaria solani; 1 ppm) of 0%. For the same molecule, the Observed efficacy (Phytophtora infestans; 4 ppm) was 6%.

For `Cn1cc(C(=O)Nc2ccccc2-c2cc(F)c(F)c(F)c2)c(C(F)F)n1` [Fluxapyroxad, fluxapyroxad], the Observed efficacy (Septoria tritici; 0.063 ppm) was 54%.

Work on `COC(=O)N(OC)c1ccccc1COc1ccn(-c2ccc(Cl)cc2)n1` [Pyraclostrobin, pyraclostrobin] yielded an Observed efficacy (Septoria tritici; 0.004 ppm) of 63%, an Observed efficacy (Alternaria solani; 0.001 ppm) of 16% and an Observed efficacy (Phytophtora infestans; 0.063 ppm) of 28%.
